Reference: ChEMBL document CHEMBL1201862, “PubChem BioAssay data set” (2004)
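Interpolation was linear, between the two tested concentrations surrounding the appropriate level; five concentrations were tested over 48 hours in 96-well plates. At the GI50, growth is halved.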 Active and inactive are the calls of the source. Rule as the data show it: active = GI50 up to about 1.1 µM and inactive = higher.

Tests used:
Assay in all cases: inhibition of tumour cell growth, NCI panel, 48 h
CCRF-CEM = system: CCRF-CEM
COLO 205 = system: COLO 205
DU-145 = system: DU-145
HCT-116 = system: HCT-116
HCT-15 = system: HCT-15
Hs-578T = system: Hs-578T
MDA-MB-435 = system: MDA-MB-435
NCI-H226 = system: NCI-H226
OVCAR-4 = system: OVCAR-4
OVCAR-8 = system: OVCAR-8
PC-3 = system: PC-3
SK-MEL-28 = system: SK-MEL-28
SK-MEL-2 = system: SK-MEL-2
SR = system: SR
SW-620 = system: SW-620
HOP-62 = system: HOP-62
OVCAR-5 = system: OVCAR-5
RPMI-8226 = system: RPMI-8226
SF-295 = system: SF-295
RXF 393 = system: RXF 393

SMILES | GI50 (CCRF-CEM) | GI50 (COLO 205) | GI50 (DU-145) | GI50 (HCT-116) | GI50 (HCT-15) [µM] | GI50 (Hs-578T) | GI50 (MDA-MB-435) | GI50 (NCI-H226) | GI50 (OVCAR-4) | GI50 (OVCAR-8) | GI50 (PC-3) | GI50 (SK-MEL-28) | GI50 (SK-MEL-2) | GI50 (SR) | GI50 (SW-620) | GI50 (HOP-62) | GI50 (OVCAR-5) | GI50 (RPMI-8226) | GI50 (SF-295) | GI50 (RXF 393)
C[C@@H](c1ccccc1)n1c(N)c(C#N)c2ccc([N+](=O)[O-])cc2c1=O | 14.6 µM (inactive) | 15 µM (inactive) | 15.9 µM (inactive) | 14.4 µM (inactive) | 12.9 | 18.2 µM (inactive) | 14.2 µM (inactive) | 1.68 µM (inactive) | 14.2 µM (inactive) | 12 µM (inactive) | > 100 µM (inactive) | 15 µM (inactive) | > 100 µM (inactive) | 2.69 µM (inactive) | 19.1 µM (inactive) |  |  |  |  | 
O=C1OCCC[C@H]2O[C@@H](COCc3ccccc3)C[C@@H]12 | > 100 µM (inactive) | > 100 µM (inactive) | > 100 µM (inactive) | > 100 µM (inactive) | > 100 | > 100 µM (inactive) | > 100 µM (inactive) | > 100 µM (inactive) | > 100 µM (inactive) | > 100 µM (inactive) | > 100 µM (inactive) | > 100 µM (inactive) | > 100 µM (inactive) | > 100 µM (inactive) | > 100 µM (inactive) | > 100 µM (inactive) | > 100 µM (inactive) | > 100 µM (inactive) | > 100 µM (inactive) | 
CO[C@]12CC(=O)C3(C(C[C@H]4CC5CC[C@H]6C[C@@H](OC(C)=O)CC[C@]6(OC(C)=O)C5C[C@@]43C)C1)C1C[C@H]3[C@@H]4CC[C@H]5C[C@@H](OC(C)=O)CC[C@]5(OC(C)=O)[C@H]4CC[C@]3(C)C12 (some centres undefined) | 24.5 µM (inactive) | 40.5 µM (inactive) | 70.3 µM (inactive) | 42.5 µM (inactive) | 90.2 | 71.4 µM (inactive) | 56 µM (inactive) |  | 17.1 µM (inactive) | 46 µM (inactive) | 50.8 µM (inactive) | > 100 µM (inactive) | > 100 µM (inactive) | > 100 µM (inactive) | > 100 µM (inactive) | > 100 µM (inactive) | > 100 µM (inactive) | 37.2 µM (inactive) | 61.5 µM (inactive) | 
C=CC(C)(O)CCC1C(=C)C(O)CC2C(C)(C)CCCC12C (centres undefined) | 18.5 µM (inactive) | 16 µM (inactive) | 18.2 µM (inactive) | 17.9 µM (inactive) | 17.6 | 22.6 µM (inactive) | 18.6 µM (inactive) | 15.6 µM (inactive) | 20.5 µM (inactive) | 26.1 µM (inactive) | 15.3 µM (inactive) | 18.7 µM (inactive) | 16.3 µM (inactive) |  | 20.7 µM (inactive) | 20.6 µM (inactive) | 20 µM (inactive) | 20 µM (inactive) | 21.1 µM (inactive) | 14.3 µM (inactive)
CC1=C(C(N)=O)C(c2ccncc2)C(C#N)C(=O)N1 (centres undefined) | > 100 µM (inactive) | > 100 µM (inactive) | > 100 µM (inactive) | > 100 µM (inactive) | > 100 | > 100 µM (inactive) | > 100 µM (inactive) |  | > 100 µM (inactive) |  | > 100 µM (inactive) | > 100 µM (inactive) | > 100 µM (inactive) | > 100 µM (inactive) | > 100 µM (inactive) | > 100 µM (inactive) |  | > 100 µM (inactive) | > 100 µM (inactive) | > 100 µM (inactive)
COc1ccccc1C(O)[C@@H]1C[C@@H]2[C@H]3CC[C@@](C)([C@@H]2O1)C3(C)C (some centres undefined) | 20.8 µM (inactive) | 19.1 µM (inactive) | 22.1 µM (inactive) | 20.5 µM (inactive) | 20.7 | 14.7 µM (inactive) | 18.5 µM (inactive) |  |  | 18.2 µM (inactive) | 20.7 µM (inactive) | 17.1 µM (inactive) | 18.1 µM (inactive) | 20.6 µM (inactive) | 16.1 µM (inactive) | 18.7 µM (inactive) | 19.5 µM (inactive) | 25.2 µM (inactive) | 18.4 µM (inactive) | 17.4 µM (inactive)
CC[C@@H]1CC[C@@H]2[C@H](CC[C@]3(C)[C@@H](O)CC[C@@H]23)[C@H]1C(=O)O | > 100 µM (inactive) | > 100 µM (inactive) | > 100 µM (inactive) | > 100 µM (inactive) | > 100 | > 100 µM (inactive) | > 100 µM (inactive) | > 100 µM (inactive) | > 100 µM (inactive) | > 100 µM (inactive) | > 100 µM (inactive) | > 100 µM (inactive) | > 100 µM (inactive) |  | > 100 µM (inactive) | > 100 µM (inactive) | > 100 µM (inactive) | > 100 µM (inactive) | > 100 µM (inactive) | > 100 µM (inactive)
CCCCCCCC(CC(=O)NC(CO)C(=O)NC(CO)CC(C)C)OC(=O)CC(CCCCCCC)OC(=O)CC(CCCCCCC)OC1OC(C)C(O)C(OC2OC(C)C(O)C(O)C2OC(C)=O)C1O (centres undefined) | 3.15 µM (inactive) | 2.04 µM (inactive) | 10.6 µM (inactive) | 3.94 µM (inactive) |  | 4.51 µM (inactive) | 2.75 µM (inactive) | 20.5 µM (inactive) | 5.64 µM (inactive) | 7.35 µM (inactive) | 4.06 µM (inactive) | 9.64 µM (inactive) |  | 2.14 µM (inactive) | 8.75 µM (inactive) | 12.9 µM (inactive) | 10.3 µM (inactive) |  | 10 µM (inactive) | 2.14 µM (inactive)
CC(C)(C)OC(=O)n1c(-c2ccccc2F)cc(=O)c2cc3c(cc21)OCO3 | 0.0638 µM (active) | 0.0942 µM (active) | 0.0451 µM (active) | 0.0426 µM (active) | 0.0505 | 0.0407 µM (active) | 0.0214 µM (active) | 0.0791 µM (active) |  | 0.0906 µM (active) | 0.0391 µM (active) | > 100 µM (inactive) | 0.0531 µM (active) | 0.0327 µM (active) | 0.0596 µM (active) | 0.0863 µM (active) | 6.53 µM (inactive) | 0.0364 µM (active) | 0.05 µM (active) | 
Cc1nc2c(Br)cc(Br)cc2c(=O)n1-c1ccccc1NC1OC(CO)C(O)C(O)C1O (centres undefined) | > 100 µM (inactive) | > 100 µM (inactive) | > 100 µM (inactive) | > 100 µM (inactive) | > 100 | > 100 µM (inactive) | > 100 µM (inactive) | > 100 µM (inactive) | > 100 µM (inactive) | > 100 µM (inactive) | > 100 µM (inactive) | > 100 µM (inactive) | > 100 µM (inactive) |  | > 100 µM (inactive) | > 100 µM (inactive) | > 100 µM (inactive) | > 100 µM (inactive) | > 100 µM (inactive) | > 100 µM (inactive)
CO/C=C/C=C(\C#N)C(=O)OC | 26.3 µM (inactive) | > 100 µM (inactive) | > 100 µM (inactive) | > 100 µM (inactive) | > 100 | > 100 µM (inactive) | > 100 µM (inactive) | > 100 µM (inactive) | > 100 µM (inactive) | > 100 µM (inactive) | > 100 µM (inactive) | > 100 µM (inactive) | > 100 µM (inactive) | > 100 µM (inactive) | > 100 µM (inactive) | > 100 µM (inactive) | > 100 µM (inactive) | > 100 µM (inactive) | > 100 µM (inactive) | 
CCOC(=O)NC(Nc1ccc(S(=O)(=O)Nc2ncccn2)cc1)(C(=O)OCC)C(F)(F)F (centres undefined) | > 100 µM (inactive) | > 100 µM (inactive) | > 100 µM (inactive) | > 100 µM (inactive) | > 100 | > 100 µM (inactive) | > 100 µM (inactive) | > 100 µM (inactive) | > 100 µM (inactive) | > 100 µM (inactive) | > 100 µM (inactive) | > 100 µM (inactive) | > 100 µM (inactive) | > 100 µM (inactive) | > 100 µM (inactive) | > 100 µM (inactive) | > 100 µM (inactive) | > 100 µM (inactive) | > 100 µM (inactive) | 
CN(C)CCNC1=CC(=O)c2c(O)ccc(O)c2C1=O | 3.94 µM (inactive) | 1.9 µM (inactive) | 13.8 µM (inactive) | 2.8 µM (inactive) | 4.08 | 23.1 µM (inactive) | 1.8 µM (inactive) | 17.6 µM (inactive) | 4.54 µM (inactive) | 4.39 µM (inactive) | 5.77 µM (inactive) | 12.2 µM (inactive) | 8.95 µM (inactive) |  | 3.3 µM (inactive) | 16.3 µM (inactive) | 14.2 µM (inactive) | 7.52 µM (inactive) | 11.4 µM (inactive) | 14.2 µM (inactive)
NCS(=O)(=O)O | > 100 µM (inactive) | > 100 µM (inactive) | > 100 µM (inactive) | > 100 µM (inactive) | > 100 | > 100 µM (inactive) | > 100 µM (inactive) | > 100 µM (inactive) | 83.4 µM (inactive) | > 100 µM (inactive) | > 100 µM (inactive) | > 100 µM (inactive) | > 100 µM (inactive) |  | > 100 µM (inactive) | > 100 µM (inactive) | > 100 µM (inactive) | > 100 µM (inactive) | > 100 µM (inactive) | > 100 µM (inactive)
CC(C)(C)c1ccc(-c2nc3ccc(Cl)cc3c(=O)o2)cc1 | 14.8 µM (inactive) | 17.7 µM (inactive) | 25.4 µM (inactive) | 15.6 µM (inactive) | 13.9 | 30.5 µM (inactive) | 24.1 µM (inactive) |  | 20.5 µM (inactive) | 14.5 µM (inactive) | 21.5 µM (inactive) | 21.3 µM (inactive) | 18.5 µM (inactive) | 16.4 µM (inactive) | 26.4 µM (inactive) | 20.9 µM (inactive) | 25.1 µM (inactive) | 19.6 µM (inactive) | 13 µM (inactive) | 39.1 µM (inactive)
